Assay [1] has as its system primary postnatal (P0) cortical cells. Kind of assay: Neurite outgrowth assay (Aβ1-42-induced reduction of neurite outgrowth, high content microscopy). Type of assay: cell-based, rat. The following applies: Rattus norvegicus; maximum response relative to 300 nM dimebolin, at the concentration given; read-out: Maximum Effect (of % 300 nM Dimebolin). As to the method: In addition to PC12 cells, other cellular model systems may also be used. Rat cortical cells were cultured and prepared for high content microscopy analysis as previously described (Hu, M.; Schurdak, M. E.; et al. High content screen microscopy analysis of Aβ1-42-induced neurite outgrowth reduction in rat primary cortical neurons: Neuroprotective effects of α7 neuronal nicotinic acetylcholine receptor ligands. Brain Res. 2007, 1151, 227-235.). Briefly, cortical cell cultures were plated at density of 5×10^5 cells/mL onto poly-D-lysine coated 96-well plates and maintained in a cell incubator at 37° C. with 5% CO2. Experiments were performed using 6-7 day-old cortical cell cultures by treating with test compounds. In some experiments, the effect of test compounds on reversing Aβ toxicity were also measured (Hu, M.; Schurdak, M. E.; et al. High content screen microscopy analysis of Aβ1-42-induced neurite outgrowth reduction in rat primary cortical neurons: Neuroprotective effects of α7 neuronal nicotinic acetylcholine receptor ligands. Brain Res. 2007, 1151, 227-235.). For assessment of neuroprotective effects, cells were first pretreated with test compounds for about 5 hours. Medium was then replaced with the medium containing freshly prepared about 5 μM Aβ1-42 peptide in the absence or presence of the test compounds for 3 days. The untreated group contained the same percentage of vehicle (DMSO) as in the treatment groups. Cells were fixed with approximately 4% paraformaldehyde containing 0.5% Hoechst 33342 for about 15 minutes, followed by three washes using PBS (pH 7.4) and blocked with 10% donkey serum in PBS for 1 hour at room temperature. The cells were then incubated overnight at about 4° C. with mouse anti-tubulin monoclonal antibody (1:100) for staining neurons and rabbit anti-GFAP (1:1000) for staining glia. In the next day, cells were incubated with FITC-labeled anti-mouse and TRITC-labeled anti-rabbit antibodies (1:1000) for about 1 hour at room temperature. After fixing and staining the cells, nuclei (360/400 nm excitation and 465/300 nm emission filters), neuron (475/350 nm excitation and 535/400 nm emission filters) and glial cell (535 nm excitation and 610 nm emission filters) images were collected using the ImageExpress Micro automatic fluorescent microscopy system (Molecular Devices, Sunnyvale, Calif.) employing a Nikon 10× Plan Fluor objective and Cool Snap HQ CCD camera. The Neurite Outgrowth module in the MetaMorph Imaging software was used to automatically count total cell number, number of neuron cells, and the extent of neurite outgrowth.
In the graph of FIG. 2, 100% response was the response observed for untreated cells. Exposure to Aβ1-42 produced a decrease in neurite outgrowth. Treatment of cells with compounds prior to and concomitantly with Aβ1-42 gave a neuroprotective effect with neurite outgrowth maintained or enhanced relative to untreated cells.

Assay [2] concerns SK-N-SH human neuroblastoma cells. Kind of assay: Serum deprivation/JC-1 mitochondrial membrane potential (MMP) assay. Type of assay: cell-based. The following applies: for Emax: SK-N-SH, read-out: JC-1 max %; for EC50: SK-N-SH cells, serum deprivation ~18 hours, JC-1 ratio normalized to peak value for 10 μM dimebolin, single curve fit to mean data of n=2-3, read-out: EC50. The method in brief: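 Cells were serum-deprived ~18 h in MEM with or without compound (DMSO ≤1%), then stained with JC-1 for 35 min at 37° C. The red/green fluorescence ratio (560/595 vs 485/535 nm) was normalized to the peak response of 10 μM dimebolin. EC50 came from one curve fit to mean data (n=2-3, duplicates).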

[3] abbreviates: Homo sapiens, percent maximal intensity in JC-1 ratio normalized to 10 μM dimebolin.

Where two headings read alike, the source gives them in different places.

In the case of `Cc1ccc2c(c1)c1c(n2CCc2cccc(C(F)(F)F)c2)C[C@@H]2CCC[C@H]1N2` [Example 135, (7S,11R)-2-methyl-5-{2-[3-(trifluoromethyl)phenyl]ethyl}-6,7,8,9,10,11-hexahydro-5H-7,11-epiminocycloocta[b]indole], in assay [1], the Emax was 126%. The same measure, in the same setting: the same measure for `Cc1ccc2c(c1)c1c(n2CCc2cccc(C(F)(F)F)c2)C[C@H]2CCC[C@@H]1N2` (single isomer, unassigned) [Example 133]: 108%.

Consider `O=c1ccccn1-c1cccc(-n2c3c(c4ccccc42)CN2CCC3CC2)n1` [Example 273, 6′-(1,3,4,5-tetrahydro-6H-2,5-ethanoazepino[4,3-b]indol-6-yl)-2H-1,2′-bipyridin-2-one], for which, in assay [2] (setting [3]), the Emax was determined as 190%. The EC50 in assay [2] (Homo sapiens) amounted to 7.48 µM. On to `NC(=O)c1cc(-n2c3c(c4ccccc42)CN2CCC3CC2)ccc1N` [Example 276, 2-amino-5-(3,4,5,6-tetrahydro-1H-2,5-ethanoazepino[4,3-b]indol-6(1H)-yl)benzamide], for which, in assay [2], the concentration giving a half-maximal response (EC50) stood at 6.65 µM. Also, the JC-1 max % in assay [2] (percent maximal intensity in JC-1 ratio normalized to 10 μM dimebolin) worked out at 80.55%. Consider `Fc1ccc2c(c1)c1c(n2-c2cccc(-n3cccn3)n2)C2CCN(CC2)C1` [Example 225, 9-fluoro-6-[6-(1H-pyrazol-1-yl)pyridin-2-yl]-3,4,5,6-tetrahydro-1H-2,5-ethanoazepino[4,3-b]indole], for which the Emax in assay [2] (setting [3]) turned out to be 209%. The EC50 in assay [2] (Homo sapiens) worked out at 2.74 µM. For `Cc1ccc2c(c1)c1c(n2S(=O)(=O)c2ccc(Cl)cc2)C2CCN1CC2` [Example 215, 5-[(4-chlorophenyl)sulfonyl]-8-methyl-2,3,4,5-tetrahydro-1,4-ethanopyrido[3,2-b]indole], in that order: 196% and 3.34 µM. Turning to `FC(F)(F)c1ccc(Cn2c3c(c4ccccc42)CN2CCC3CC2)cn1` [Example 256, 6-{[6-(trifluoromethyl)pyridin-3-yl]methyl}-3,4,5,6-tetrahydro-1H-2,5-ethanoazepino[4,3-b]indole], in assay [2] (setting [3]), the Emax stood at 89.6%. For the same compound, the EC50 in assay [2] (Homo sapiens) was 15.5 µM. Consider `Fc1ccc2c(c1)c1c(n2Cc2ccc(Cl)nc2)C2CCN(CC2)C1` [Example 164, 6-[(6-chloropyridin-3-yl)methyl]-9-fluoro-3,4,5,6-tetrahydro-1H-2,5-ethanoazepino[4,3-b]indole], for which the Emax in assay [2] (setting [3]) was 197%. Besides, the concentration for a half-maximal effect (EC50) in assay [2] (Homo sapiens) was 4.95 µM. Take `CN1C2CCC1c1c(n(CCc3ccc(Cl)cc3)c3ccc(Br)cc13)C2` (stereo not shown) [Example 87, 2-bromo-5-[2-(4-chlorophenyl)ethyl]-11-methyl-5,6,7,8,9,10-hexahydro-7,10-epiminocyclohepta[b]indole]: in assay [2] (setting [3]), the Emax was found to be 139%. In addition, the concentration giving a half-maximal response (EC50) in assay [2] (Homo sapiens) stood at 3.33 µM.

As to `Cc1ccc2c(c1)c1c(n2CCc2ccc(Cl)nc2)C2CC3CC1CN(C3)C2` (stereo not shown) [Example 196, 8-[2-(6-chloropyridin-3-yl)ethyl]-11-methyl-1,4,5,6,7,8-hexahydro-2H-1,5:3,7-dimethanoazonino[5,4-b]indole], the Emax in assay [2] (setting [3]) amounted to 182%. Moreover, in assay [2] (Homo sapiens), the EC50 is 3.91 µM. For `Cc1ccc2c(c1)[C@@H]1[C@H]3CC[C@@H](C[C@@H]1N2CCc1ccc(C)nc1)N3C` [Example 113, (5aS,7S,10R,10aR)-2,11-dimethyl-5-[2-(6-methylpyridin-3-yl)ethyl]-5,5a,6,7,8,9,10,10a-octahydro-7,10-epiminocyclohepta[b]indole] the same measures were 353% and 2.99 µM. For `CN1[C@@H]2CC[C@H]1c1c(n(-c3ccc4ncccc4c3)c3ccccc13)C2` [Example 286, (7R,10S)-11-methyl-5-(quinolin-6-yl)-5,6,7,8,9,10-hexahydro-7,10-epiminocyclohepta[b]indole], in that order: 239% and 4.41 µM. On to `Fc1ccc2c(c1)c1c(n2Cc2nc3ccccc3[nH]2)C2CCN(CC2)C1` [Example 250, 6-(1H-benzimidazol-2-ylmethyl)-9-fluoro-3,4,5,6-tetrahydro-1H-2,5-ethanoazepino[4,3-b]indole], for which, in assay [2] (setting [3]), the Emax worked out at 77.3%. Further, in assay [2] (Homo sapiens), the concentration giving a half-maximal response (EC50) came out at 8.37 µM.

On to `CN(CC1OCCO1)c1ccc(Cn2c3c(c4cc(F)ccc42)CN2CCC3CC2)cn1` [Example 243, N-(1,3-dioxolan-2-ylmethyl)-5-[(9-fluoro-1,3,4,5-tetrahydro-6H-2,5-ethanoazepino[4,3-b]indol-6-yl)methyl]-N-methylpyridin-2-amine], for which the Emax in assay [2] (setting [3]) amounted to 169%. Further, in assay [2] (Homo sapiens), the concentration giving a half-maximal response (EC50) came out at 8.36 µM.

Regarding `Cc1ccc2c(c1)c1c(n2/C=C\c2ccc(C)nc2)C2CCN(CC2)C1` [Example 147, 9-methyl-6-[(Z)-2-(6-methylpyridin-3-yl)vinyl]-3,4,5,6-tetrahydro-1H-2,5-ethanoazepino[4,3-b]indole], the Emax in assay [2] (setting [3]) was 266%. In assay [2] (Homo sapiens), the concentration for a half-maximal effect (EC50) is 2.53 µM. For `Cc1ccc(CCn2c3c(c4cc(C(C)C)ccc42)C2CCC(C3)N2C)cn1` (stereo not shown) [Example 99, 2-isopropyl-11-methyl-5-[2-(6-methylpyridin-3-yl)ethyl]-5,6,7,8,9,10-hexahydro-7,10-epiminocyclohepta[b]indole], in that order: 138% and 3.07 µM. As to `Cc1ccc2c(c1)c1c(n2-c2ccc(-c3ccc(I)cc3)nn2)CC2CCC1N2C` (stereo not shown) [Example 3, 5-[6-(4-iodophenyl)pyridazin-3-yl]-2,11-dimethyl-5,6,7,8,9,10-hexahydro-7,10-epiminocyclohepta[b]indole], the Emax in assay [2] (setting [3]) amounted to 191%. Moreover, in assay [2] (Homo sapiens), the EC50 was found to be 5.11 µM. For `Cc1ccc(/C=C\n2c3c(c4cc(C)ccc42)[C@@H]2CC[C@H](C3)N2C)cc1` (single isomer, unassigned) [Example 61] the same measures were 211% and 4.37 µM. `Cc1ccc(CCn2c3c(c4cc(-c5cn[nH]c5)ccc42)C2CCC(C3)N2C)cn1` (stereo not shown) [Example 112, 11-methyl-5-[2-(6-methylpyridin-3-yl)ethyl]-2-(1H-pyrazol-4-yl)-5,6,7,8,9,10-hexahydro-7,10-epiminocyclohepta[b]indole]: in assay [2] (setting [3]), the Emax worked out at 101%. Further, in assay [2] (Homo sapiens), the EC50 is 3.43 µM. As for `Cc1ccc2c(c1)c1c(n2-c2ccc3ccncc3c2)C[C@@H]2CC[C@H]1N2C` [Example 68, (7S,10R)-5-isoquinolin-7-yl-2,11-dimethyl-5,6,7,8,9,10-hexahydro-7,10-epiminocyclohepta[b]indole], the Emax in assay [2] (setting [3]) stood at 213%. The EC50 in assay [2] (Homo sapiens) stood at 3.22 µM.

Consider `Cc1ccc2c(c1)c1c(n2/C=C/c2ccc(C)nc2)C[C@@H]2CC[C@H]1N2C` [Example 23, (7S,10R)-2,11-dimethyl-5-[(E)-2-(6-methylpyridin-3-yl)vinyl]-5,6,7,8,9,10-hexahydro-7,10-epiminocyclohepta[b]indole], for which the Emax in assay [2] (setting [3]) is 332%. Also, in assay [2] (Homo sapiens), the concentration for a half-maximal effect (EC50) worked out at 3.32 µM. For `Fc1ccc2c(c1)c1c(n2Cc2cnc(-c3ccccc3)nc2)C2CCN(CC2)C1` [Example 249, 9-fluoro-6-[(2-phenylpyrimidin-5-yl)methyl]-3,4,5,6-tetrahydro-1H-2,5-ethanoazepino[4,3-b]indole], in that order: 133% and 5.27 µM.

Consider `CC1CCC(CCn2c3c(c4cc(OC(F)(F)F)ccc42)CN2CCC3CC2)CN1` (stereo not shown) [Example 179, 6-[2-(6-methylpiperidin-3-yl)ethyl]-9-(trifluoromethoxy)-3,4,5,6-tetrahydro-1H-2,5-ethanoazepino[4,3-b]indole], for which, in assay [2] (setting [3]), the Emax came out at 116%. In addition, the concentration giving a half-maximal response (EC50) in assay [2] (Homo sapiens) was found to be 5.69 µM. For `Cc1ccc2c(c1)c1c(n2CCc2ccc(Cl)cc2)C2CCCN(C1)C2` (stereo not shown) [Example 204, 7-[2-(4-chlorophenyl)ethyl]-10-methyl-1,3,4,5,6,7-hexahydro-2,6-methanoazocino[4,3-b]indole], in that order: 182% and 3.23 µM.

Usually EC50 stands for the midpoint of the concentration-response curve.

The values above are taken from patent publication US9983218B2, “Indole and indoline derivatives and methods of use thereof” (AbbVie Inc., priority 2008, dated 2018).
